Measured values taken from the NIST ThermoML archive (doi:10.1021/acs.jced.7b00429).

Test: xn = mol fraction of the nth substance listed
Settings: 100 kPa, Liquid; for viscosity: Falling or rolling sphere viscometry; for speed of sound: Frequency=3 MHz, Single path-length method; for mass density: Vibrating tube method

CCn1cc[n+](C)c1.O=S(=O)([O-])C(F)(F)F [1-ethyl-3-methylimidazolium trifluoromethanesulfonate] + C[S+](C)[O-]
Settings | mass density [kg/m3] | speed of sound [m/s] | viscosity [mPa·s]
298.15 K, x1 = 0.1068 | 1168.75 | 1488 | 3.65
298.15 K, x1 = 0.2015 | 1216.25 | 1477.1 | 5.35
298.15 K, x1 = 0.3077 | 1256.63 | 1468.6 | 7.89
298.15 K, x1 = 0.4023 | 1284.76 | 1462.5 | 11.82
298.15 K, x1 = 0.4933 | 1306.53 | 1456.5 | 16.26
298.15 K, x1 = 0.6022 | 1328.03 | 1453 | 21.05
298.15 K, x1 = 0.6993 | 1344 | 1449.9 | 26.12
298.15 K, x1 = 0.7929 | 1357.15 | 1445.6 | 31.96
298.15 K, x1 = 0.9008 | 1370.28 | 1441.2 | 38.88
298.15 K, x1 = 1 | 1379.91 | 1436 | 45.67
303.15 K, x1 = 0.1068 | 1164 | 1472.7 | 3.26
303.15 K, x1 = 0.2015 | 1211.78 | 1462.7 | 4.72
303.15 K, x1 = 0.3077 | 1252.35 | 1454.9 | 6.9
303.15 K, x1 = 0.4023 | 1280.52 | 1449.4 | 10.2
303.15 K, x1 = 0.4933 | 1302.34 | 1443.8 | 13.93
303.15 K, x1 = 0.6022 | 1323.93 | 1440.6 | 17.95
303.15 K, x1 = 0.6993 | 1339.92 | 1437.8 | 22.18
303.15 K, x1 = 0.7929 | 1353.08 | 1433.9 | 27.03
303.15 K, x1 = 0.9008 | 1366.19 | 1430 | 32.74
303.15 K, x1 = 1 | 1375.71 | 1425.4 | 38.31
308.15 K, x1 = 0.1068 | 1159.28 | 1457.5 | 2.94
308.15 K, x1 = 0.2015 | 1207.5 | 1448.3 | 4.2
308.15 K, x1 = 0.3077 | 1248.17 | 1441.2 | 6.08
308.15 K, x1 = 0.4023 | 1276.4 | 1436.4 | 8.91
308.15 K, x1 = 0.4933 | 1298.26 | 1431.3 | 12.06
308.15 K, x1 = 0.6022 | 1319.96 | 1428.4 | 15.48
308.15 K, x1 = 0.6993 | 1335.83 | 1425.8 | 19.05
308.15 K, x1 = 0.7929 | 1349.06 | 1422.3 | 23.08
308.15 K, x1 = 0.9008 | 1362.09 | 1418.7 | 27.81
308.15 K, x1 = 1 | 1371.51 | 1414.3 | 32.38
313.15 K, x1 = 0.1068 | 1154.49 | 1442.4 | 2.66
313.15 K, x1 = 0.2015 | 1203.23 | 1434 | 3.76
313.15 K, x1 = 0.3077 | 1243.91 | 1427.7 | 5.42
313.15 K, x1 = 0.4023 | 1272.21 | 1423.5 | 7.85
313.15 K, x1 = 0.4933 | 1294.19 | 1418.8 | 10.52
313.15 K, x1 = 0.6022 | 1315.98 | 1416.5 | 13.47
313.15 K, x1 = 0.6993 | 1331.89 | 1414 | 16.52
313.15 K, x1 = 0.7929 | 1345.04 | 1410.8 | 19.91
313.15 K, x1 = 0.9008 | 1358.06 | 1407.4 | 23.88
313.15 K, x1 = 1 | 1367.36 | 1403 | 27.68
318.15 K, x1 = 0.1068 | 1149.74 | 1425.5 | 2.42
318.15 K, x1 = 0.2015 | 1198.95 | 1419.8 | 3.39
318.15 K, x1 = 0.3077 | 1239.74 | 1414.3 | 4.85
318.15 K, x1 = 0.4023 | 1268.06 | 1410.8 | 6.96
318.15 K, x1 = 0.4933 | 1290.23 | 1406.5 | 9.26
318.15 K, x1 = 0.6022 | 1312.02 | 1404.5 | 11.82
318.15 K, x1 = 0.6993 | 1327.93 | 1401.9 | 14.45
318.15 K, x1 = 0.7929 | 1341 | 1399.5 | 17.32
318.15 K, x1 = 0.9008 | 1353.95 | 1396.5 | 20.68
318.15 K, x1 = 1 | 1363.21 | 1392.7 | 23.86
323.15 K, x1 = 0.1068 | 1144.99 | 1410.4 | 2.22
323.15 K, x1 = 0.2015 | 1194.68 | 1405.7 | 3.08
323.15 K, x1 = 0.3077 | 1235.66 | 1401 | 4.37
323.15 K, x1 = 0.4023 | 1263.96 | 1398.1 | 6.22
323.15 K, x1 = 0.4933 | 1286.19 | 1394.3 | 8.23
323.15 K, x1 = 0.6022 | 1307.97 | 1392.7 | 10.45
323.15 K, x1 = 0.6993 | 1323.95 | 1390.7 | 12.72
323.15 K, x1 = 0.7929 | 1337.02 | 1388.2 | 15.19
323.15 K, x1 = 0.9008 | 1349.9 | 1385.5 | 18.05
323.15 K, x1 = 1 | 1359.07 | 1381.7 | 20.75
